This assay concerns the target human IDO1 (Homo sapiens, UniProt P14902). The experiment in a line: Assessment of human IDO-1 inhibitory activity in HEK cells (human IDO1/HEK293 cells, kynurenine read-out with Ehrlich reagent, absorbance 490 nm). Type of assay: cell-based. The arrangement: expressed in transfected cells. The conditions noted are these: HEK Human IDO-1 cellular assay. In outline: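 Kynurenine output from stably IDO1-transfected HEK293 cells (10,000/well, phenol red-free RPMI, 10% FBS) after 20 h compound exposure at 37 °C. The reaction was stopped with 0.2% TCA and heated 30 min at 50 °C, then the supernatant was mixed with Ehrlich reagent and read at 490 nm. IC50 was set against DMSO and a 500 nM reference standard as 0 and 100% inhibition.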

A word on the IC50: it is the point on the concentration scale where inhibition reaches its midpoint.

human IDO1, sequence (P14902 whole entry): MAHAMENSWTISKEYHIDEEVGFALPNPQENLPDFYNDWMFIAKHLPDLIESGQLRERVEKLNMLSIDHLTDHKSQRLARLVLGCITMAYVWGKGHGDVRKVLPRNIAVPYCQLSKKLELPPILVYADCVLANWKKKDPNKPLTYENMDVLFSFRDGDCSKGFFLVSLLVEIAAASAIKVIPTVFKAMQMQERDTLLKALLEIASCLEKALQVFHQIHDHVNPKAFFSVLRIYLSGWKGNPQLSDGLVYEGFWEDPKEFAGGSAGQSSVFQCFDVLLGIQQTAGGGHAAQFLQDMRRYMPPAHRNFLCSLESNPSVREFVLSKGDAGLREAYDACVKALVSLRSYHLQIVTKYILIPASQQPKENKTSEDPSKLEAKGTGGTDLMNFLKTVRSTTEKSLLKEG

As for `CCN(c1ccc([C@H](COC)CC(=O)O)cc1NC(=O)Nc1ccc(Cl)cc1F)C1CCOCC1` (single isomer, unassigned) [Example 434], the 50% inhibitory concentration (IC50) was less than 50 nM.

In the case of `CCN(c1ccc([C@H](COC)CC(=O)O)cc1NC(=O)Nc1ccc(OC)cc1F)C1CCOCC1` (single isomer, unassigned) [Example 435], the IC50 is greater than 50 nM.

For `CCN(c1ccc([C@H](COC)CC(=O)O)cc1NC(=O)Nc1ccc(OC(F)F)cc1)C1CCOCC1` (single isomer, unassigned) [Example 436], the concentration for half-maximal inhibition (IC50) was greater than 50 nM.

Consider `CCN(c1ccc([C@H](COC)CC(=O)O)cc1NC(=O)Nc1ccc(OC)nc1)C1CCOCC1` (single isomer, unassigned) [Example 437], for which the 50% inhibitory concentration (IC50) was greater than 50 nM.

On to `CCN(c1ccc([C@H](COC)CC(=O)O)cc1NC(=O)Nc1cnc(C)nc1)C1CCOCC1` (single isomer, unassigned) [Example 438], for which the half-inhibitory concentration (IC50) was greater than 50 nM.

Take `CCN(c1ccc([C@H](COC)CC(=O)O)cc1NC(=O)Nc1cc(C)on1)C1CCOCC1` (single isomer, unassigned) [Example 439]: the IC50 is greater than 50 nM.

`CCN(c1ccc([C@H](COC)CC(=O)O)cc1NC(=O)Nc1cc(C)no1)C1CCOCC1` (single isomer, unassigned) [Example 440]: the IC50 was greater than 50 nM.

Consider `CCC(CC(=O)O)c1ccc(N2C[C@@H]3C[C@H]2CN3C(=O)OC(C)(C)C)c(Nc2ccc(C)cc2)c1` (single isomer, unassigned) [Example 445], for which the IC50 is less than 5 nM.

On to `CCC(CC(=O)O)c1ccc(N2C[C@@H]3C[C@H]2CN3C(=O)OC(C)(C)C)c(Nc2ccccc2)c1` (single isomer, unassigned) [Example 446], for which the half-inhibitory concentration (IC50) was less than 50 nM.

For `CCC(CC(=O)O)c1ccc(N2C[C@@H]3C[C@H]2CN3C(=O)OC(C)(C)C)c(Nc2ccc(C)cc2)c1` (single isomer, unassigned) [Example 447], the half-inhibitory concentration (IC50) was less than 50 nM.

In the case of `CCOc1ncc(Nc2cc([C@@H](CC)CC(=O)O)ccc2N(CC)C2CCOCC2)cn1` (single isomer, unassigned) [Example 455], the 50% inhibitory concentration (IC50) is less than 50 nM.

Regarding `CC[C@@H](CC(=O)O)c1ccc(N(CC)C2CCOCC2)c(Nc2ccc(Cl)cc2)c1` (single isomer, unassigned) [Example 456], the IC50 was less than 5 nM.

`CCc1cnc(Nc2cc([C@@H](CC)CC(=O)O)ccc2N(CC)C2CCOCC2)nc1` (single isomer, unassigned) [Example 457]: the 50% inhibitory concentration (IC50) was less than 50 nM.

As for `CC[C@@H](CC(=O)O)c1ccc(N(CC)C2CCOCC2)c(Nc2ccc(C#N)cc2)c1` (single isomer, unassigned) [Example 458], the concentration for half-maximal inhibition (IC50) was less than 5 nM.

Regarding `CC[C@@H](CC(=O)O)c1ccc(N(CC)C2CCOCC2)c(Nc2ccn3nccc3n2)c1` (single isomer, unassigned) [Example 468], the IC50 was greater than 50 nM.

Consider `CC[C@@H](CC(=O)O)c1ccc(N(CC)C2CCOCC2)c(Nc2nc3cc(C)nn3cc2F)c1` (single isomer, unassigned) [Example 469], for which the concentration for half-maximal inhibition (IC50) was greater than 50 nM.

As for `CC[C@@H](CC(=O)O)c1ccc(N(CC)C2CCOCC2)c(Nc2ccn3nc(C)c(F)c3c2)c1` (single isomer, unassigned) [Example 470], the IC50 is less than 50 nM.

Take `CC[C@@H](CC(=O)O)c1ccc(N(CC)C2CCOCC2)c(Nc2ccc3nncn3c2)c1` (single isomer, unassigned) [Example 471]: the concentration for half-maximal inhibition (IC50) is greater than 50 nM.

`CC[C@@H](CC(=O)O)c1ccc(N(CC)C2CCOCC2)c(Nc2cnc3cnccn23)c1` (single isomer, unassigned) [Example 472]: the IC50 is greater than 50 nM.

As for `CC[C@@H](CC(=O)O)c1ccc(N(CC)C2CCOCC2)c(Nc2ccn3nc(C)c(F)c3n2)c1` (single isomer, unassigned) [Example 473], the IC50 was greater than 50 nM.

Regarding `CCOc1ccc(Nc2cc([C@@H](CC)CC(=O)O)ccc2N(CC)C2CCOCC2)cc1` (single isomer, unassigned) [Example 474], the half-maximal inhibitory concentration (IC50) was less than 5 nM.

For `CC[C@@H](CC(=O)O)c1ccc(N(CC)C2CCOCC2)c(Nc2ccc(OCC(F)(F)F)cc2)c1` (single isomer, unassigned) [Example 475], the IC50 is less than 5 nM.

For `CC[C@@H](CC(=O)O)c1ccc(N(CC)C2CCOCC2)c(Nc2ccc(OCC3CC3)cc2)c1` (single isomer, unassigned) [Example 476], the IC50 was less than 5 nM.

Regarding `CCc1ccc(Nc2cc([C@@H](CC)CC(=O)O)ccc2N(CC)C2CCOCC2)cc1` (single isomer, unassigned) [Example 477], the half-inhibitory concentration (IC50) was less than 5 nM.

Take `CC[C@@H](CC(=O)O)c1ccc(N(CC)C2CCOCC2)c(Nc2ccc(OC)nc2)c1` (single isomer, unassigned) [Example 478]: the IC50 was less than 5 nM.

On to `CC[C@@H](CC(=O)O)c1ccc(N(CC)C2CCOCC2)c(Nc2cnc(OC)nc2)c1` (single isomer, unassigned) [Example 479], for which the IC50 was less than 5 nM.

`CC[C@@H](CC(=O)O)c1ccc(N(CC)C2CCOCC2)c(Nc2cnc(OCC3CC3)nc2)c1` (single isomer, unassigned) [Example 480]: the IC50 is less than 5 nM.

With `CC[C@@H](CC(=O)O)c1ccc(N(CC)C2CCOCC2)c(Nc2ccc(Cl)c(OC)c2)c1` (single isomer, unassigned) [Example 481], the concentration for half-maximal inhibition (IC50) is less than 5 nM.

Take `CCOc1ccc(Nc2cc([C@@H](CC)CC(=O)O)ccc2N(CC)C2CCOCC2)nc1` (single isomer, unassigned) [Example 482]: the IC50 was less than 5 nM.

As for `CC[C@@H](CC(=O)O)c1ccc(N(CC)C2CCOCC2)c(Nc2cn3ccnc3cn2)c1` (single isomer, unassigned) [Example 483], the concentration for half-maximal inhibition (IC50) was greater than 50 nM.

`CC[C@@H](CC(=O)O)c1ccc(N(CC)C2CCOCC2)c(Nc2ccc3nc(C)sc3c2)c1` (single isomer, unassigned) [Example 484]: the IC50 is less than 5 nM.

For `CC[C@@H](CC(=O)O)c1ccc(N(CC)C2CCOCC2)c(Nc2ccc(S(=O)(=O)CC)cc2)c1` (single isomer, unassigned) [Example 485], the IC50 is less than 50 nM.

As to `CC[C@@H](CC(=O)O)c1ccc(N(CC)C2CCOCC2)c(Nc2ccc3c(c2)OCCO3)c1` (single isomer, unassigned) [Example 486], the IC50 is greater than 50 nM.

For the compound `CCC(CC(=O)O)c1ccc(N(CC)C2CCOCC2)c(NC(=O)Nc2ccc(C)cc2)c1` (single isomer, unassigned) [Example 487 Enantiomer 1, 3-(4-(Ethyl(tetrahydro-2H-pyran-4-yl)amino)-3-(3-(p-tolyl)ureido)phenyl)pentanoic acid], the IC50 was less than 5 nM.

For the compound `CCC(CC(=O)O)c1ccc(N(CC)C2CCOCC2)c(NC(=O)Nc2cnc(C)nc2)c1` (single isomer, unassigned) [Example 488 Enantiomer 1, 3-(4-(Ethyl(tetrahydro-2H-pyran-4-yl)amino)-3-(3-(2-methylpyrimidin-5-yl)ureido)phenyl)pentanoic acid], the concentration for half-maximal inhibition (IC50) is greater than 50 nM.

On to `CC[C@@H](CC(=O)O)c1ccc(N(CC)C2CCOCC2)c(NC(=O)Nc2ccc(Cl)cc2F)c1` (single isomer, unassigned) [Example 489], for which the IC50 is less than 5 nM.

Consider `CC[C@@H](CC(=O)O)c1ccc(N(CC)C2CCOCC2)c(NC(=O)Nc2ccc(F)cc2)c1` (single isomer, unassigned) [Example 490], for which the IC50 was less than 50 nM.

On to `CC[C@@H](CC(=O)O)c1ccc(N(CC)C2CCOCC2)c(NC(=O)Nc2ccc(OC)cc2)c1` (single isomer, unassigned) [Example 492], for which the IC50 was less than 50 nM.

`CC[C@@H](CC(=O)O)c1ccc(N(CC)C2CCOCC2)c(NC(=O)Nc2ccc(OC)cc2F)c1` (single isomer, unassigned) [Example 493]: the half-maximal inhibitory concentration (IC50) was greater than 50 nM.

Consider `CC[C@@H](CC(=O)O)c1ccc(N(CC)C2CCOCC2)c(NC(=O)Nc2ccc(Cl)cc2)c1` (single isomer, unassigned) [Example 494], for which the IC50 is greater than 50 nM.

Turning to `CC[C@@H](CC(=O)O)c1ccc(N(CC)C2CCOCC2)c(NC(=O)Nc2ccc(Cl)nc2)c1` (single isomer, unassigned) [Example 495], the IC50 was greater than 50 nM.

With `CC[C@@H](CC(=O)O)c1ccc(N(CC)C2CCOCC2)c(NC(=O)Nc2ccc3c(c2)CS(=O)(=O)C3)c1` (single isomer, unassigned) [Example 496], the IC50 is greater than 50 nM.

As to `CC[C@@H](CC(=O)O)c1ccc(N(CC)C2CCOCC2)c(NC(=O)Nc2cc(C)on2)c1` (single isomer, unassigned) [Example 497], the half-inhibitory concentration (IC50) is greater than 50 nM.

In the case of `CCOc1ncc(Nc2cc([C@H](CC)CC(=O)O)ccc2N(CC)C2CCOCC2)cn1` (single isomer, unassigned) [Example 498], the half-inhibitory concentration (IC50) was less than 5 nM.

`CC[C@H](CC(=O)O)c1ccc(N(CC)C2CCOCC2)c(Nc2ccc(Cl)cc2)c1` (single isomer, unassigned) [Example 499]: the IC50 is less than 5 nM.

In the case of `CCc1cnc(Nc2cc([C@H](CC)CC(=O)O)ccc2N(CC)C2CCOCC2)nc1` (single isomer, unassigned) [Example 500], the concentration for half-maximal inhibition (IC50) is greater than 50 nM.

Consider `CC[C@H](CC(=O)O)c1ccc(N(CC)C2CCOCC2)c(Nc2ccc(C#N)cc2)c1` (single isomer, unassigned) [Example 501], for which the half-inhibitory concentration (IC50) is less than 5 nM.

Regarding `CC[C@H](CC(=O)O)c1ccc(N(CC)C2CCOCC2)c(Nc2ccn3nccc3n2)c1` (single isomer, unassigned) [Example 511], the 50% inhibitory concentration (IC50) is greater than 50 nM.

As for `CC[C@H](CC(=O)O)c1ccc(N(CC)C2CCOCC2)c(Nc2ccc3nncn3c2)c1` (single isomer, unassigned) [Example 512], the half-maximal inhibitory concentration (IC50) is greater than 50 nM.

Take `CC[C@H](CC(=O)O)c1ccc(N(CC)C2CCOCC2)c(Nc2ccn3nc(C)c(F)c3c2)c1` (single isomer, unassigned) [Example 513]: the half-inhibitory concentration (IC50) was less than 50 nM.

Take `CC[C@H](CC(=O)O)c1ccc(N(CC)C2CCOCC2)c(Nc2ccc(OCC(F)(F)F)cc2)c1` (single isomer, unassigned) [Example 515]: the 50% inhibitory concentration (IC50) is less than 5 nM.

Source of the values: patent US9790169B2, “IDO inhibitors” (BRISTOL-MYERS SQUIBB COMPANY, priority 2015, dated 2017).
